Data reported in PubChem BioAssay AID1963962 (Molecular Pharmacology Branch, DTP, NCI, 2024).

Tested on: 967376-340-R-J2-PDC multicell spheroid viability
Assay: Anticancer human tumor 967376-340-R-J2-PDC patient-derived colon adenocarcinoma cell line growth inhibition [PI3K]
Settings: for IC50: curve of first compound; for viability, T/C: stronger effect = lower value; active = viability on the fitted dose curve at most 10% of control; inactive = the rest
Text: Combinatorial screen of targeted agents with the PI3K inhibitors inavolisib, alpelisib, duvelisib, and copanlisib in multi-cell type tumor spheroids
A high-throughput screen of multi-cell type tumor spheroids was designed to identify active combinations of targeted small molecules and PI3K pathway inhibitors. Complex spheroids include a stromal component modeled by human endothelial cells (HUVEC) and fibroblasts modeled by human mesenchymal stem cells (MSCs). The concentration ranges selected for each drug and investigational agent were based upon clinically achievable concentrations if the clinical Cmax of the agent was known.
Compounds. The drugs and investigational agents: inavolisib (NSC800729), alpelisib (NSC765974), duvelisib (NSC772469), copanlisib (NSC816437), ipatasertib (NSC767898), afuresertib (NSC778305), talazoparib (NSC767125), sapanisertib (NSC764658), selumetinib (NSC741078), tovorafenib (DAY101, NSC766906), vemurafenib (NSC761431), ravoxertinib (NSC781343), sotorasib (NSC818433), MRTX1133 (NSC 836407), abemaciclib (NSC 768073), palbociclib (NSC758247), venetoclax (NSC 766270), SY5609 (NSC837396), enzalutamide (NSC755605), and darolutamide (NSC825331), were obtained from the National Cancer Institute (NCI) Developmental Therapeutics Program Chemical Repository. The FDA-approved anticancer drug set is available from the NCI Developmental Therapeutics Program. […] The stock solutions were prepared in dimethyl sulfoxide (DMSO, Sigma-Aldrich, St. Louis, MO, cat. D2650) at 800-fold the tested concentration and stored at -70 degrees C prior to their use. All drugs and investigational agents were tested over a range starting from a high concentration at or near the clinical Cmax and decreasing in half-log increments. If the clinical Cmax for an agent had not been determined, the highest concentration tested was 10 microM.
Cell Culture. All cells were maintained in an incubator at 37 degrees C and 5% CO2 with 95% humidity. The PDC lines were cultured according to standard operating procedures established by the NCI PDMR (https://pdmr.cancer.gov/sops/default.htm). All PDCs were thawed and cultured in Matrigel-coated flasks prepared with a working solution of 1X Ham's F-12 nutrient mix, without supplementation (Invitrogen, Waltham, MA, cat. 11765054), 100 U/mL penicillin-streptomycin (Invitrogen, cat. 15140122), and 2.5% Matrigel (Corning Inc., Corning, NY, cat. 354248) for the first three passages. The 354836-022-R-J1-PDC, 475296-252-R-J1-PDC, and 997726-040-R-J2-PDC lines were cultured in 6A media, which includes advanced DMEM/F-12 (Thermo Fisher Scientific, cat. 12634028), 10 mM HEPES (Thermo Fisher Scientific, cat. 15630080), 1X GlutaMAX supplement (Thermo Fisher Scientific, cat. 35050061), 0.1 mg/mL primocin (InvivoGen, San Diego, CA, cat. ant-pm-2), 10% defined fetal bovine serum, heat inactivated (HyClone Laboratories Inc., Logan, UT, cat. SH30070.03HI), 50% L-WRN conditioned media (ATCC, cat. CRL-3276), 1.25 mM N-Acetyl-L-cysteine (Sigma-Aldrich, cat. A9165), 10 mM nicotinamide (Sigma-Aldrich, cat. N0636), 1X B-27 supplement (Thermo Fisher Scientific, cat. 17504044), 1X N-2 supplement (Thermo Fisher Scientific, cat. 17502048), and 10 microM Y-27632 dihydrochloride (Tocris Bioscience, Bristol, United Kingdom, cat. 1254). The 624824-186-R-J2-PDC line was cultured in 6C/Colon 1B media, which includes all 6A media components plus 50 ng/mL human EGF recombinant protein (Thermo Fisher Scientific, cat. PHG0311). […]

[1] = second compound 0.00316 µM, first compound 0.0316 µM
[2] = second compound 0.00316 µM, first compound 0.1 µM
[3] = second compound 0.00316 µM, first compound 0.316 µM
[4] = second compound 0.00316 µM, first compound 1 µM
[5] = second compound 0.00316 µM, first compound 3.16 µM
[6] = second compound 0.00316 µM, first compound 10 µM
[7] = second compound 0.01 µM, first compound 0.0316 µM
[8] = second compound 0.01 µM, first compound 0.1 µM
[9] = second compound 0.01 µM, first compound 0.316 µM
[10] = second compound 0.01 µM, first compound 1 µM
[11] = second compound 0.01 µM, first compound 3.16 µM
[12] = second compound 0.01 µM, first compound 10 µM
[13] = second compound 0.0316 µM, first compound 0.0316 µM
[14] = second compound 0.0316 µM, first compound 0.1 µM
[15] = second compound 0.0316 µM, first compound 0.316 µM
[16] = second compound 0.0316 µM, first compound 1 µM
[17] = second compound 0.0316 µM, first compound 3.16 µM
[18] = second compound 0.0316 µM, first compound 10 µM
[19] = second compound 0.1 µM, first compound 0.0316 µM
[20] = second compound 0.1 µM, first compound 0.1 µM
[21] = second compound 0.1 µM, first compound 0.316 µM
[22] = second compound 0.1 µM, first compound 1 µM
[23] = second compound 0.1 µM, first compound 3.16 µM
[24] = second compound 0.1 µM, first compound 10 µM
[25] = second compound 0.316 µM, first compound 0.0316 µM
[26] = second compound 0.316 µM, first compound 0.1 µM
[27] = second compound 0.316 µM, first compound 0.316 µM
[28] = second compound 0.316 µM, first compound 1 µM
[29] = second compound 0.316 µM, first compound 3.16 µM
[30] = second compound 0.316 µM, first compound 10 µM
[31] = second compound 1 µM, first compound 0.0316 µM
[32] = second compound 1 µM, first compound 0.1 µM
[33] = second compound 1 µM, first compound 0.316 µM
[34] = second compound 1 µM, first compound 1 µM
[35] = second compound 1 µM, first compound 3.16 µM
[36] = second compound 1 µM, first compound 10 µM
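Also: spheroids exposed to agents for 7 days before read-out.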
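For viability, T/C in this document: luminescence used as surrogate of cell viability.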

CC1(C)CCC(CN2CCN(c3ccc(C(=O)NS(=O)(=O)c4ccc(NCC5CCOCC5)c([N+](=O)[O-])c4)c(Oc4cnc5[nH]ccc5c4)c3)CC2)=C(c2ccc(Cl)cc2)C1 + CC(Nc1ccc2c(c1)OCCn1cc(N3C(=O)OCC3C(F)F)nc1-2)C(N)=O
inactive: viability, T/C [1] 106% | viability, T/C [2] 67.9% | viability, T/C [3] 97.2% | viability, T/C [4] 98% | viability, T/C [5] 102% | viability, T/C [6] 61.1% | viability, T/C [7] 107% | viability, T/C [8] 75.7% | viability, T/C [9] 79.9% | viability, T/C [10] 78.6% | viability, T/C [11] 81.2% | viability, T/C [12] 57.3% | viability, T/C [13] 67.3% | viability, T/C [14] 86.5% | viability, T/C [15] 82.2% | viability, T/C [16] 88.9% | viability, T/C [17] 75.9% | viability, T/C [18] 81.5% | viability, T/C [19] 70.6% | viability, T/C [20] 80.5% | viability, T/C [21] 79.1% | viability, T/C [22] 84.7% | viability, T/C [23] 95.7% | viability, T/C [24] 58.8% | viability, T/C [25] 68.3% | viability, T/C [26] 81.5% | viability, T/C [27] 58.2% | viability, T/C [28] 76.2% | viability, T/C [29] 71.2% | viability, T/C [30] 44.5% | viability, T/C [31] 56.7% | viability, T/C [32] 48.1% | viability, T/C [33] 57.2% | viability, T/C [34] 49.9% | viability, T/C [35] 67.8% | viability, T/C [36] 36.2%
7.82 µM: IC50 (second compound 0.316 µM)
> 10 µM: IC50 (second compound 0.00316 µM) | IC50 (second compound 0.01 µM) | IC50 (second compound 0.0316 µM) | IC50 (second compound 0.1 µM)
4.85 µM: IC50 (second compound 1 µM)

C[C@@H](NC(=O)c1ncnc(N)c1Cl)c1ncc(C(=O)Nc2cc(C(F)(F)F)c(Cl)cn2)s1 + CC(Nc1ccc2c(c1)OCCn1cc(N3C(=O)OCC3C(F)F)nc1-2)C(N)=O
> 10 µM: IC50 (second compound 0.00316 µM) | IC50 (second compound 0.01 µM) | IC50 (second compound 0.0316 µM) | IC50 (second compound 0.1 µM) | IC50 (second compound 0.316 µM) | IC50 (second compound 1 µM)
inactive: viability, T/C [1] 105% | viability, T/C [2] 74.9% | viability, T/C [3] 73.3% | viability, T/C [4] 91.9% | viability, T/C [5] 80.4% | viability, T/C [6] 97.9% | viability, T/C [7] 83.9% | viability, T/C [8] 98.7% | viability, T/C [9] 101% | viability, T/C [10] 94.8% | viability, T/C [11] 97.1% | viability, T/C [12] 130% | viability, T/C [13] 62.2% | viability, T/C [14] 107% | viability, T/C [15] 69% | viability, T/C [16] 98.9% | viability, T/C [17] 95.2% | viability, T/C [18] 109% | viability, T/C [19] 72.9% | viability, T/C [20] 67.8% | viability, T/C [21] 63.6% | viability, T/C [22] 77.7% | viability, T/C [23] 75.2% | viability, T/C [24] 66% | viability, T/C [25] 65.5% | viability, T/C [26] 70.6% | viability, T/C [27] 78.2% | viability, T/C [28] 73.5% | viability, T/C [29] 77.2% | viability, T/C [30] 70.9% | viability, T/C [31] 69.4% | viability, T/C [32] 62.2% | viability, T/C [33] 56% | viability, T/C [34] 57.9% | viability, T/C [35] 69.9% | viability, T/C [36] 62%
